What all share (type): in vivo
For experiment [1], the system named is NZBXW/F1 mice. The experiment can be described thus: Proteinuria in lupus mice treated with PC-tuftsin (Multistix). As to conditions: 50 μg/0.1 ml s.c. 3 times a week from 14 weeks; vs PBS. The method, then:
The effect of PC-tuftsin (TPC) on proteinuria was determined in a mouse model for lupus, specifically, female NZBXW/F1 mice that develop lupus on a genetic background. Proteinuria levels were measured using Multistix (Bayer Diagnostics). This type of measurement is typically used in the clinic for assessing manifestation of lupus nephritis. Lupus nephritis is an inflammation of the kidney caused by systemic lupus erythematosus (SLE).
The mice, from age of 14 weeks, received subcutaneously PC-tuftsin at the concentration of 50 μg/0.1 ml per mouse (treatment; n=10) or PBS (control; n=10), three times a week. Proteinuria was defined as having a protein level of above 100 mg/dl in the urine.

In experiment [2] the test system is NZBXW/F1 mice. The experiment can be described thus: Kidney morphology in lupus mice treated with PC-tuftsin (PAS, immunofluorescence). As to conditions: 50 μg/0.1 ml s.c. 3 times a week. The method, then: The effect of PC-tuftsin on the morphology of kidneys was determined in a lupus mouse model as in Examples 2. Kidney section obtained from kidneys of mice sacrificed after treatments were paraffin embedded. PAS staining was used to detect pathology of nephritis. Immunofluorescence staining was used for detecting immune complex deposits. The latter was implemented by incubating the paraffin embedded sections with FITC-conjugated-anti-mouse-IgG. Evaluation was performed by a pathologist.
Mice, from age of 14 weeks, received subcutaneously PC-tuftsin at the concentration of 50 μg/0.1 ml per mouse (treatment; n=10) or PBS (control; n=10), three times a week.

Experiment [3] has as its system splenocytes of lupus mice. Put plainly: Cytokine mRNA in splenocytes of lupus mice treated with PC-tuftsin (real time RT-PCR). The settings on record: normalized to β-actin; vs PBS. How it is done: (§1) Mice, from age of 14 weeks, received subcutaneously PC-tuftsin at the concentration of 50 μg/0.1 ml per mouse (treatment; n=10) or PBS (control; n=10), three times a week. In the cytokines studies, the relative mRNA expression levels of pro-inflammatory cytokine IFNγ and anti-inflammatory cytokine TGFβ were analyzed by real time RT-PCR using LightCycler (Roche). Total RNA was isolated from splenocytes and was reverse-transcribed into cDNA by using Moloney Murine Leukemia Virus Reverse Transcriptase (Promega). The resulting cDNA was subjected to real-time RT-PCR in the presence of specific primers, according to the manufacturer's instructions (Table 2). The relative expression levels of IFNγ and TGFβ were normalized to β-actin levels.
In general terms: In qPCR the cycle at which signal appears reflects the starting amount.

Experiment [4] concerns splenocytes of lupus mice. Put plainly: Secreted cytokine protein of splenocytes of lupus mice treated with PC-tuftsin (DuoSet). The settings on record: splenocytes incubated 72 hours. The method, then:
as §1
Splenocytes protein level of anti-inflammatory cytokines TGFβ, and IL-10 and pro-inflammatory cytokines IFNγ, and IL-17 were quantified by DuoSet (R&D Systems), according to the manufacturer's instructions. Briefly, spleens from mice treated with PC-tuftsin or PBS were harvested, splenocytes were isolated (5×10^6/ml) and incubated for 72 hours and thereafter assessed for contents of secreted cytokines.

Experiment [5] deals with Tregs CD4+CD25+FOXP3+. Put plainly: T regulatory cell profiling by FACS in splenocytes of lupus mice (PC-tuftsin study). As to conditions: PBS 4±0.6 percent. How it is done: as §1
Finally, a T regulatory cell (Tregs) profiling assay was performed in isolated splenocytes incubated with the following antibodies: anti-CD4^+FITC, anti-CD25^+APC and anti-FOXP3^+PE (eBioscience) and analyzed by FACS. Forward and side scatter gates adjusted to include all cells and to exclude debris (Becton Dickinson). Cells were gated on CD4+ cells, and for intracellular staining, the cells were incubated with a fixation solution, washed and resuspended in permeabilization solution (Serotec). Isotype control was used as reference.
A general note: Flow cytometry measures light scatter and fluorescence of single cells or particles in a stream.

Experiment [6] deals with male C57BL/6 mice. The experiment can be described thus: DSS induced acute colitis in mice. As to conditions: even after day 12. The method, then:
The effect of PC-tuftsin derivative (SEQ ID NO: 25) on colitis development was determined in a mouse model subjected to induction of acute colitis by dextran sulfate sodium (DSS) treatment. Specifically, induction of colitis was carried out in male C57BL/6 mice (“colitis mice”) by supplementing the drinking water (2.5% wt/v) for five days with DSS (mol. wt. 36,000-50,000).
Two groups of mice were fed daily via oral ingestion using a feeding-needle, with PC-tuftsin derivative at a concentration of 500 μg/0.1 ml per mouse (treatment; n=10), or PBS (control; n=10). These compounds were given during 11 days starting two days before DSS administration.
Assessment of colitis development was performed by monitoring body weight, rectal bleeding, stool consistency, and survival every second day. Intestinal bleeding was followed by Hemoccult test and observation of bleeding signs on the anus or gross bleeding. The daily disease activity index (DAI) was calculated by grading on a scale of zero to four the following parameters: change in weight (0, <1%; 1, 1-5%; 2, 5-10%; 3, 10— 15%; and 4, >15%), intestinal bleeding (0, negative; 4, positive), and stool consistency (0, normal; 2, loose stools; 4, diarrhea). The combined scores were then divided by three to obtain the final disease activity index. Ten days following disease induction, mice were sacrificed and the large intestine was collected and evaluated for colon length and microscopic colonic damage. For microscopic scoring, the proximal, medial, and distal portions of the colon and the cecum were fixed in 10% phosphate-buffered formalin. Paraffin-embedded sections were stained with H&E. The degree of histological damage and inflammation was graded in a blinded fashion by an expert pathologist

Where no end group is shown, it is not given here.

1 substance from patent US12350308B2, “Phosphorylcholine conjugates and uses thereof” (TPCERA LTD., priority 2013, dated 2025) can be followed below.

For “PC-tuftsin: PC conjugated to tuftsin (threonine-lysine-proline-arginine, TKPR; SEQ ID NO: 17) using 4-aminophenylphosphorylcholine (also: phosphorylcholine conjugated via 4-aminophenylphosphorylcholine, site not given here)”, in experiment [1], the “proteinuria (protein level above 100 mg/dl)” value is given as “significant attenuation”. Moreover, the “pathology of nephritis (PAS staining)” value in experiment [2] was “did not display any pathology of nephritis”. Moreover, the “immune complex deposits in the glomeruli” value in experiment [2] (vs PBS) is given as “very mild immune complex deposits”. For the same substance, in experiment [3], the “relative mRNA expression of IFNγ in splenocytes” value is “significantly reduced” and the “relative mRNA expression of TGFβ in splenocytes” value was “significantly enhanced”. In experiment [4] (vs PBS), the “increase in protein level of IL-10” value came out at 4.8 and the “increase in protein level of TGFβ” value stood at 5.1. In experiment [4] (vs control), the “reduction of IFNγ concentration” value is 5.2 fold and the “reduction of IL-17 concentration” value was 2.7 fold. The “enhancement in Tregs CD4+CD25+FOXP3+ expression level” value in experiment [5] stood at 18±2%. This substance registered a mice still alive in experiment [6] of 100%.
